Experimental data reported in US20230146395A1, “Substituted Pyrimidines and Uses Thereof” (Verge Analytics, Inc., priority 2020, published 2023).

Target: T1, Full length human recombinant PIKFYVE (Homo sapiens, UniProt Q9Y2I7)
T1 construct: Full length human recombinant PIKFYVE; purchased Carna Biosciences (Kobe, Japan); host or cells: baculovirus expression system
Assay: Inhibition of PIKfyve (microfluidic electrophoresis kinase assay, PI3P/PS substrate)
Format: biochemical
Conditions: 12 concentrations
How it was run: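 GST-tagged full-length human PIKFYVE (baculovirus; 2 nM) with fluorescent PI3P/PS (1 μM PI3P) and […] in pH 7.5 HEPES with Mg2+/Mn2+, 1% DMSO, 3 h at room temperature. PI(3,5)P product/substrate ratio read by microfluidic electrophoresis; 12-point % inhibition versus no-enzyme and DMSO controls.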

T1 sequence (Q9Y2I7 whole entry): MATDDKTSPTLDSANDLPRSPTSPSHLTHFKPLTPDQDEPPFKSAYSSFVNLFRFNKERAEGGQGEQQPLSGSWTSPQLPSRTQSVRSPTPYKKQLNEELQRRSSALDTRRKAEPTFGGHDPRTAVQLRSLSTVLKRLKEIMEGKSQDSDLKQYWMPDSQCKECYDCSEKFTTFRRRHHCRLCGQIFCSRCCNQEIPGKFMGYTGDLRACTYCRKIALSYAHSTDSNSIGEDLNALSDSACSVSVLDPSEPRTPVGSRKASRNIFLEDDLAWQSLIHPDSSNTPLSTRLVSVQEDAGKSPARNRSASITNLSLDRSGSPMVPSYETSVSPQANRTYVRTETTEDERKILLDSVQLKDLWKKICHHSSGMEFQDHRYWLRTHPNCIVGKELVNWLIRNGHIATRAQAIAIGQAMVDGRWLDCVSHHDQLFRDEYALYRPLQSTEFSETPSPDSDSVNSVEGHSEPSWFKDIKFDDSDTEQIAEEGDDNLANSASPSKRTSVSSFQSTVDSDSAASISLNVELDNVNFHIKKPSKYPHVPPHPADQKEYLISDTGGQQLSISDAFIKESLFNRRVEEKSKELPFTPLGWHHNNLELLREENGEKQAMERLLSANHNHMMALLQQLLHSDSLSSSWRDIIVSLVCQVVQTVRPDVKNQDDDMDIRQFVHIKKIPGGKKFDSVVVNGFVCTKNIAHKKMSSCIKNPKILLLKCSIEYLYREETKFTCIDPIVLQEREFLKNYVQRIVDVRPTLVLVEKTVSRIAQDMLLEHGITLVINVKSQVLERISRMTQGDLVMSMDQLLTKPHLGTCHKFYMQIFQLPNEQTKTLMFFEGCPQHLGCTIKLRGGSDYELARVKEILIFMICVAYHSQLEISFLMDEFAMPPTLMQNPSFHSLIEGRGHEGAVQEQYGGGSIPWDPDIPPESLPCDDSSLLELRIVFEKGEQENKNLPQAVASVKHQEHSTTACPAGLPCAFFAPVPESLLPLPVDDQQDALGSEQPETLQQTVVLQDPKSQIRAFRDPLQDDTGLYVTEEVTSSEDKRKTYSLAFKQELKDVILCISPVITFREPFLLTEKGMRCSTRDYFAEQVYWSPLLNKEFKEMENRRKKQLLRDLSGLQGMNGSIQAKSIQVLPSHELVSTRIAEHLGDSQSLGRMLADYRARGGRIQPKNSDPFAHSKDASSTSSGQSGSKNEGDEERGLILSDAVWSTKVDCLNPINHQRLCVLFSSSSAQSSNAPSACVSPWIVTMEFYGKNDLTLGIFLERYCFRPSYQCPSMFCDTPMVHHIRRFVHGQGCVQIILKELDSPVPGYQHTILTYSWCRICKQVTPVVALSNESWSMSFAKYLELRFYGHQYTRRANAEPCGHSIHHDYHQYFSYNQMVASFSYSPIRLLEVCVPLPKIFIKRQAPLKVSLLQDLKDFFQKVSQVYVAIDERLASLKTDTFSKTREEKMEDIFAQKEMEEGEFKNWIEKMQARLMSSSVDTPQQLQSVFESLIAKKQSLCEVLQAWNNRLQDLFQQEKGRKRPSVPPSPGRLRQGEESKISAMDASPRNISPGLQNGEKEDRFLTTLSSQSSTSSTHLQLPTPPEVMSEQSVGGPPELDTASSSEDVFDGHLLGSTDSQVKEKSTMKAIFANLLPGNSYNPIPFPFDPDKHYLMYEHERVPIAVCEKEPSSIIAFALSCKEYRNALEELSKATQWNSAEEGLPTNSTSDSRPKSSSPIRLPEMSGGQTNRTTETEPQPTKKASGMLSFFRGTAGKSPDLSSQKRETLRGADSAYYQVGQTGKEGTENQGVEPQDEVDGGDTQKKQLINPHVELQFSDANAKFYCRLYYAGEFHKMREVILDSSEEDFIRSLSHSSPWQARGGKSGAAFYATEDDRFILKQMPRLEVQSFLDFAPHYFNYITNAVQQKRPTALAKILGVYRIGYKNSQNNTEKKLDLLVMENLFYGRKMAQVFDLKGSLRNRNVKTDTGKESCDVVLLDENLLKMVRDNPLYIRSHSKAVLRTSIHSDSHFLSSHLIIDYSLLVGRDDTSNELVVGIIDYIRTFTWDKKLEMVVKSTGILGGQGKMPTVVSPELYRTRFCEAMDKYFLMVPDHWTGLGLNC

IC50 [µM]	SMILES
0.095	CN(C)C(=O)c1cc2nc(Nc3cc(-c4ccccc4)[nH]n3)nc(N3CCOCC3)c2o1 [Compound 137, N,N-dimethyl-4-morpholino-2-((5-phenyl-1H-pyrazol-3-yl)amino)furo[3,2-d]pyrimidine-6-carboxamide]
0.033	CNC(=O)c1cc2nc(Nc3cc(-c4ccccc4)[nH]n3)nc(N3CCOCC3)c2o1 [Compound 138, N-methyl-4-morpholino-2-((5-phenyl-1H-pyrazol-3-yl)amino)furo[3,2-d]pyrimidine-6-carboxamide]
0.022	CON(C)C(=O)c1cc2nc(Nc3cc(-c4ccccc4)[nH]n3)nc(N3CCOCC3)c2o1 [Compound 139, N-methoxy-N-methyl-4-morpholino-2-((5-phenyl-1H-pyrazol-3-yl)amino)furo[3,2-d]pyrimidine-6-carboxamide]
0.043	COCCNC(=O)c1cc2nc(Nc3cc(-c4ccccc4)[nH]n3)nc(N3CCOCC3)c2o1 [Compound 140, N-(2-methoxyethyl)-4-morpholino-2-((5-phenyl-1H-pyrazol-3-yl)amino)furo[3,2-d]pyrimidine-6-carboxamide]
0.252	O=C(O)c1cc2nc(Nc3cc(-c4ccccc4)[nH]n3)nc(N3CCOCC3)c2o1 [Compound 141, 4-morpholino-2-((5-phenyl-1H-pyrazol-3-yl)amino)furo[3,2-d]pyrimidine-6-carboxylic acid]
0.145	c1ccc(-c2cc(Nc3nc(N4CCOCC4)c4occc4n3)n[nH]2)cc1 [Compound 142, 4-morpholino-N-(5-phenyl-1H-pyrazol-3-yl)furo[3,2-d]pyrimidin-2-amine]
1.03	Cc1cccc(-c2cnn(-c3nc(N4CCOCC4)c4oc(C(=O)NC5CC5)c(C(F)(F)F)c4n3)c2)c1 [Compound 147, N-cyclopropyl-4-morpholino-2-(4-(m-tolyl)-1H-pyrazol-1-yl)-7-(trifluoromethyl)furo[3,2-d]pyrimidine-6-carboxamide]
3.86	Cc1cccc(-c2ccn(-c3nc(N4CCOCC4=O)c4oc(-c5ccccn5)cc4n3)n2)c1 [Compound 148]
> 20	CCNC(=O)c1cc2nc(-n3cc(-c4cccc(C)c4)cn3)nc(N3CCOCC3=O)c2o1 [Compound 149, N-ethyl-2-[4-(m-tolyl)pyrazol-1-yl]-4-(3-oxomorpholin-4-yl)furo[3,2-d]pyrimidine-6-carboxamide]
0.103	Cc1cccc(-c2cnn(-c3nc(N4CCOCC4)c4oc(C(=O)NCCS(C)(=O)=O)cc4n3)c2)c1 [Compound 150, N-(2-(methylsulfonyl)ethyl)-4-morpholino-2-(4-(m-tolyl)-1H-pyrazol-1-yl)furo[3,2-d]pyrimidine-6-carboxamide]
0.446	CN1CCC(NC(=O)c2cc3nc(-n4ccc(-c5ccccc5)n4)nc(N4CCOCC4)c3o2)CC1 [Compound 151, N-(1-methyl-4-piperidyl)-4-morpholino-2-(3-phenylpyrazol-1-yl)furo[3,2-d]pyrimidine-6-carboxamide]
0.306	CCNC(=O)c1cc2nc(-n3ccc(-c4ccccc4)n3)nc(N3CCOCC3)c2o1 [Compound 152, N-ethyl-4-morpholino-2-(3-phenyl-1H-pyrazol-1-yl)furo[3,2-d]pyrimidine-6-carboxamide]
0.024	O=C(NC1CC1)c1cc2nc(-n3ccc(-c4ccccc4)n3)nc(N3CCOCC3)c2o1 [Compound 153, N-cyclopropyl-4-morpholino-2-(3-phenylpyrazol-1-yl)furo[3,2-d]pyrimidine-6-carboxamide]
0.0773	CCNC(=O)c1cc2nc(-n3cc(-c4ccccc4)cn3)nc(N3CCOCC3)c2o1 [Compound 154, N-ethyl-4-morpholino-2-(4-phenylpyrazol-1-yl)furo[3,2-d]pyrimidine-6-carboxamide]
0.0706	c1ccc(-c2ccn(-c3nc(N4CCOCC4)c4oc(-c5ccccn5)cc4n3)n2)cc1 [Compound 155, 4-morpholino-2-(3-phenylpyrazol-1-yl)-6-(2-pyridyl)furo[3,2-d]pyrimidine]
0.152	c1ccc(-c2ccn(-c3nc(N4CCOCC4)c4oc(-c5cccnc5)cc4n3)n2)cc1 [Compound 156, 4-morpholino-2-(3-phenyl-1H-pyrazol-1-yl)-6-(pyridin-3-yl)furo[3,2-d]pyrimidine]
0.0888	CN1CCC(NC(=O)c2cc3nc(-n4cc(-c5ccccc5)cn4)nc(N4CCOCC4)c3o2)CC1 [Compound 157, N-(1-methylpiperidin-4-yl)-4-morpholino-2-(4-phenyl-1H-pyrazol-1-yl)furo[3,2-d]pyrimidine-6-carboxamide]
0.16	c1ccc(-c2ccn(-c3nc(N4CCOCC4)c4oc(-c5ccncc5)cc4n3)n2)cc1 [Compound 158, 4-morpholino-2-(3-phenylpyrazol-1-yl)-6-(4-pyridyl)furo[3,2-d]pyrimidine]
0.943	O=C(NCC1COC1)c1cc2nc(-n3ccc(-c4ccccc4)n3)nc(N3CCOCC3)c2o1 [Compound 159, 4-morpholino-N-(oxetan-3-ylmethyl)-2-(3-phenylpyrazol-1-yl)furo[3,2-d]pyrimidine-6-carboxamide]

IC50 [µM]	SMILES
0.0617	c1ccc(-c2cnn(-c3nc(N4CCOCC4)c4oc(-c5cccnc5)cc4n3)c2)cc1 [Compound 160, 4-morpholino-2-(4-phenylpyrazol-1-yl)-6-(3-pyridyl)furo[3,2-d]pyrimidine]
0.0404	c1ccc(-c2cnn(-c3nc(N4CCOCC4)c4oc(-c5ccccn5)cc4n3)c2)cc1 [Compound 161, 4-morpholino-2-(4-phenylpyrazol-1-yl)-6-(2-pyridyl)furo[3,2-d]pyrimidine]
0.0178	Cc1cc(-c2cc3nc(-n4ccc(-c5ccccc5)n4)nc(N4CCOCC4)c3o2)[nH]n1 [Compound 162, 6-(3-methyl-1H-pyrazol-5-yl)-4-morpholino-2-(3-phenylpyrazol-1-yl)furo[3,2-d]pyrimidine]
0.0235	Cc1cc(-c2cc3nc(-n4cc(-c5ccccc5)cn4)nc(N4CCOCC4)c3o2)[nH]n1 [Compound 163, 6-(3-methyl-1H-pyrazol-5-yl)-4-morpholino-2-(4-phenylpyrazol-1-yl)furo[3,2-d]pyrimidine]
0.162	O=C(NCC1COC1)c1cc2nc(-n3cc(-c4ccccc4)cn3)nc(N3CCOCC3)c2o1 [Compound 164, 4-morpholino-N-(oxetan-3-ylmethyl)-2-(4-phenyipyrazol-1-yl)furo[3,2-d]pyrimidine-6-carboxamide]
0.0684	O=C(NC1CC1)c1cc2nc(-n3cc(-c4ccccc4)cn3)nc(N3CCOCC3)c2o1 [Compound 165, N-cyclopropyl-4-morpholino-2-(4-phenylpyrazol-1-yl)furo[3,2-d]pyrimidine-6-carboxamide]
0.22	O=C(NCC1CC1)c1cc2nc(-n3ccc(-c4ccccc4)n3)nc(N3CCOCC3)c2o1 [Compound 166, N-(cyclopropylmethyl)-4-morpholino-2-(3-phenylpyrazol-1-yl)furo[3,2-d]pyrimidine-6-carboxamide]
0.122	CN(C)CCCCNC(=O)c1cc2nc(-n3cc(-c4ccccc4)cn3)nc(N3CCOCC3)c2o1 [Compound 167]
0.0621	CN(C)CCCNC(=O)c1cc2nc(-n3cc(-c4ccccc4)cn3)nc(N3CCOCC3)c2o1 [Compound 168, N-(3-(dimethylamino)propyl)-4-morpholino-2-(4-phenyl-1H-pyrazol-1-yl)furo[3,2-d]pyrimidine-6-carboxamide]
0.0673	CN1CCCC(NC(=O)c2cc3nc(-n4cc(-c5ccccc5)cn4)nc(N4CCOCC4)c3o2)C1 (stereo not shown) [Compound 169, N-(1-methyl-3-piperidyl)-4-morpholino-2-(4-phenylpyrazol-1-yl)furo[3,2-d]pyrimidine-6-carboxamide]
0.0455	CN1CCC(NC(=O)c2cc3nc(-n4cc(-c5ccccc5)cn4)nc(N4CCOCC4)c3o2)C1 (stereo not shown) [Compound 170, N-(1-methylpyrrolidin-3-yl)-4-morpholino-2-(4-phenylpyrazol-1-yl)furo[3,2-d]pyrimidine-6-carboxamide]
0.0392	O=C(NC1CCOCC1)c1cc2nc(-n3cc(-c4ccccc4)cn3)nc(N3CCOCC3)c2o1 [Compound 171, 4-morpholino-2-(4-phenylpyrazol-1-yl)-N-tetrahydropyran-4-yl-furo[3,2-d]pyrimidine-6-carboxamide]
0.0378	O=C(NC1CCOC1)c1cc2nc(-n3cc(-c4ccccc4)cn3)nc(N3CCOCC3)c2o1 (stereo not shown) [Compound 172, 4-morpholino-2-(4-phenylpyrazol-1-yl)-N-tetrahydrofuran-3-yl-furo[3,2-d]pyrimidine-6-carboxamide]
0.0006	Cc1cccc(-c2ccn(-c3nc(N4CCOCC4)c4oc(-c5cc(C)n[nH]5)cc4n3)n2)c1 [Compound 173, 6-(3-methyl-1H-pyrazol-5-yl)-4-morpholino-2-[3-(m-tolyl)pyrazol-1-yl]furo[3,2-d]pyrimidine]
0.531	O=C(NC1COC1)c1cc2nc(-n3cc(-c4ccccc4)cn3)nc(N3CCOCC3)c2o1 [Compound 174, 4-morpholino-N-(oxetan-3-yl)-2-(4-phenylpyrazol-1-yl)furo[3,2-d]pyrimidine-6-carboxamide]
4.01	O=C(NC1COC1)c1cc2nc(-n3ccc(-c4ccccc4)n3)nc(N3CCOCC3)c2o1 [Compound 175, 4-morpholino-N-(oxetan-3-yl)-2-(3-phenylpyrazol-1-yl)furo[3,2-d]pyrimidine-6-carboxamide]
0.0473	CN1CCCC(NC(=O)c2cc3nc(-n4cc(-c5ccccc5)cn4)nc(N4CCOCC4)c3o2)CC1 (stereo not shown) [Compound 176, N-(1-methylazepan-4-yl)-4-morpholino-2-(4-phenylpyrazol-1-yl)furo[3,2-d]pyrimidine-6-carboxamide]
0.0413	Cc1cc(-c2cc3nc(-n4ccc(-c5ccccc5)n4)nc(N4CCOCC4)c3o2)nn1CCN(C)C [Compound 177, N,N-dimethyl-2-[5-methyl-3-[4-morpholino-2-(3-phenylpyrazol-1-yl)furo[3,2-d]pyrimidin-6-yl]pyrazol-1-yl]ethanamine]
